The values below come from PMC10005185, “Structure-guided engineering of a receptor-agonist pair for inducible activation of the ABA adaptive response to drought” (Science Advances, 2023).

Structures are written as SMILES. Several values for one entry are separate records, joined by “and”; a condition that tells them apart may be missing. Equal entries are not always repeated. Some results are limits rather than exact numbers.

In experiment [1] the test system is HAB1 with SlPYL1. Nature of the experiment: PP2C inhibition assay, HAB1 with SlPYL1. Type of experiment: biochemical, Solanum lycopersicum (SlPYL1); Arabidopsis thaliana (HAB1). The note with it: 100 μM SB. The protocol:
(§1) His-tagged receptors and phosphatases were purified using nickel–nitrilotriacetic acid (Ni-NTA) affinity chromatography. Protein integrity was analyzed by SDS–polyacrylamide gel electrophoresis, followed by InstantBlue staining. Phosphatase activity was measured using p-Nitrophenyl Phosphate (pNPP) (25 mM) as substrate, 10 mM MnCl2,1 μM PP2C, and 2 μM of the indicated receptors. Proteins were incubated with the ligands for 10 min at room temperature. pNPP was then added to start the reactions, and the absorbance at 405 nm was monitored for 20 min in a ViktorX5 plate reader. Assays were repeated twice. For dose-response experiments, IC50 values were obtained with GraphPad Prism 9 using a nonlinear regression curve fit. Each ligand concentration was tested in triplicate. Phosphatase activity of ABI1 was measured using RRA(phosphoT)VA peptide as a substrate, as described ([27]).

In experiment [2] the test system is AtHAB1ΔN with CsPYL1^5m. Nature of the experiment: PP2C inhibition assay, HAB1 with CsPYL1^5m. Type of experiment: biochemical, Citrus sinensis (CsPYL1^5m); Arabidopsis thaliana (HAB1). As to conditions: lower for the synthetic receptor. The protocol:
as §1, with “Proteins were incubated with the ligands for 10 min at room temperature. pNPP was then added to start the reactions, and the absorbance at 405 nm was monitored for 20 min in a ViktorX5 plate reader.” left out

The target in experiment [3] is AtHAB1ΔN with CsPYL1^5m (Citrus sinensis, UniProt A0A067E666, F137I/T135L/T153I/V112L/V168A). The experiment in a line: PP2C inhibition assay, HAB1 with CsPYL1^5m. The note with it: IC50 for inhibition of HAB1 (ΔNHAB1) in the presence of CsPYL1^5m, pNPP as substrate. Type of experiment: biochemical, Citrus sinensis (CsPYL1^5m); Arabidopsis thaliana (HAB1). The protocol: as §1, with “Proteins were incubated with the ligands for 10 min at room temperature. pNPP was then added to start the reactions, and the absorbance at 405 nm was monitored for 20 min in a ViktorX5 plate reader.” left out

The subject of experiment [4] is AtHAB1ΔN with CsPYL1. The experiment in a line: PP2C inhibition assay, HAB1 with CsPYL1. The format is biochemical, Citrus sinensis (CsPYL1); Arabidopsis thaliana (HAB1). As to conditions: fig. S1C; AtPYL5, AtPYL10 and PYL1-like receptors. The protocol: as §1, with “Proteins were incubated with the ligands for 10 min at room temperature. pNPP was then added to start the reactions, and the absorbance at 405 nm was monitored for 20 min in a ViktorX5 plate reader.” left out

Experiment [5] addresses T1, ΔNHAB1 with AtPYL10 (Arabidopsis thaliana, UniProt Q8H1R0).
T1 construct: His; made in house
Nature of the experiment: PP2C inhibition assay, HAB1 with AtPYL10. The format is biochemical. The protocol:
as §1

Experiment [6] has as its system ΔNHAB1 with AtPYL10. The experiment in a line: PP2C inhibition assay, HAB1 with AtPYL10. Type of experiment: biochemical, Arabidopsis thaliana. As to conditions: more sensitive. The protocol: as §1
Experiment [7] deals with Arabidopsis thaliana seedlings. Nature of the experiment: Root growth assay. The note with it: for reduction of root growth: 50 μM SB. The format is in vivo. The protocol: Seedlings were grown on vertically oriented Murashige and Skoog (MS) plates for 4 to 5 days. Afterward, seedlings were transferred to MS supplemented with the indicated concentrations of the different ligands and kept on vertical orientation. Ten days later, the plates were scanned on a flatbed scanner to produce image files suitable for quantitative analysis of root growth using the NIH Image software ImageJ. The experiment was performed in triplicate (n = 13 to 16). Statistical comparisons were performed by either pairwise t tests or one-way ANOVA using GraphPad Prism 9.

Experiment [8] has as its target T2, ΔNHAB1 with AtPYL5 (Arabidopsis thaliana, UniProt Q9FLB1).
T2 construct: His; made in house
The experiment in a line: PP2C inhibition assay, HAB1 with AtPYL5. The format is biochemical. The protocol:
as §1

Experiment [9] has as its target T3, ΔNHAB1 with AtPYL1 (Arabidopsis thaliana, UniProt Q8VZS8).
T3 construct: His; made in house
The experiment in a line: PP2C inhibition assay, HAB1 with AtPYL1. The format is biochemical. The protocol: as §1

The test system of experiment [10] is Arabidopsis thaliana seedlings (WT Col-0, overexpressing lines, receptor mutants). Nature of the experiment: Seedling establishment assay. Type of experiment: in vivo. The protocol: Seedling establishment was scored as the percentage of seeds that developed green expanded cotyledons and the first pair of true leaves at 5 or 7 days. Seedling establishment assays in the presence of ABA receptor agonists were performed in 24-well plates, where approximately 25 to 35 seeds per well were sown. Each well contained a different treatment. The experiment was repeated at least twice.

The mark [11] stands for this setting: read-out: inhibition of HAB1 phosphatase activity.

T1 sequence (Q8H1R0 whole entry, stated change not applied): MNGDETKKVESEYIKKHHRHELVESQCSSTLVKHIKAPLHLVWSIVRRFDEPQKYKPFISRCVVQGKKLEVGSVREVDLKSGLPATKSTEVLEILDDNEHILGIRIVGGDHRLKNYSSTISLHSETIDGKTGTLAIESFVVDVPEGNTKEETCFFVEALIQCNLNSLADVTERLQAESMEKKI
T2 sequence (Q9FLB1 whole entry, stated change not applied): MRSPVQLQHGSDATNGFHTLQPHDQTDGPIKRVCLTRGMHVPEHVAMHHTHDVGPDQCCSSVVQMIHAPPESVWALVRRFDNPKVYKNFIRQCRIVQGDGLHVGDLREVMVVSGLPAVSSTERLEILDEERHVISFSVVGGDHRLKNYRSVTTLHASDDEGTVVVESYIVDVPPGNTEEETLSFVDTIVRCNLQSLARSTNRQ
T3 sequence (Q8VZS8 whole entry, stated change not applied): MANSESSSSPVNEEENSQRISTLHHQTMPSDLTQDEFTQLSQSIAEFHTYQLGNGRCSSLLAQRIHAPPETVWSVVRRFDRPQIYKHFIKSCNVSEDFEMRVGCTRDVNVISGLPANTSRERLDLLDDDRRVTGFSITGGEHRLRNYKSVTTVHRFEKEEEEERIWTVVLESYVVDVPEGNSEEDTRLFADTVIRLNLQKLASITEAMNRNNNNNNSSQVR
Sequence of AtHAB1ΔN with CsPYL1^5m (Citrus sinensis, UniProt A0A067E666, F137I/T135L/T153I/V112L/V168A) (A0A067E666 1-209 V112L/T135L/F137I/T153I/V168A): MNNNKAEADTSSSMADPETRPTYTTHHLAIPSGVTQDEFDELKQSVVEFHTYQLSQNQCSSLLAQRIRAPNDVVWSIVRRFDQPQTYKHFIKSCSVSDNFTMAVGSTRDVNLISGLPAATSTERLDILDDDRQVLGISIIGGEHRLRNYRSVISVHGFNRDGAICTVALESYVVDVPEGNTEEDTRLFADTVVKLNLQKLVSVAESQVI
Sequence of AtHAB1ΔN with CsPYL1^5m (Citrus sinensis, UniProt A0A067E666, F137I/T135L/T153I/V112L/V168A) (Q9CAJ0 179-511 partner): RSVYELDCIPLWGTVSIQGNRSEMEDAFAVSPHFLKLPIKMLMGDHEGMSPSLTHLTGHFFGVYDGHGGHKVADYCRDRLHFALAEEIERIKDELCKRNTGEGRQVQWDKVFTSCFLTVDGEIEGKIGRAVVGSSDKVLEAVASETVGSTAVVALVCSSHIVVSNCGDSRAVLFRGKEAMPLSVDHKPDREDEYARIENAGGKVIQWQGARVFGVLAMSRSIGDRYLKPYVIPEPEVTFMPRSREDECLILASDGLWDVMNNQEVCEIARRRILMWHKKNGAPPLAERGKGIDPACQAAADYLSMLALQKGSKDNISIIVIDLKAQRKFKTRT

In general, IC50 refers to the concentration that inhibits the measured activity by half. A word on the inhibition: it is the drop in the measured response relative to a control, in per cent. `Cc1cc(=O)n(C)c2ccc(S(=O)(=O)NCc3ccccc3)cc12` [SB, N-benzyl-1,4-dimethyl-2-oxo-1,2-dihydroquinoline-6-sulfonamide]: the “reduction of phosphatase activity” value in [1] is recorded as “around 50%”. Moreover, the “IC50 of SB for CsPYL1^5m relative to WT CsPYL1” value in experiment [2] came to 12 fold. Also, the IC50 in experiment [3] was 877 nM and 876 nM; in experiment [5] (Fig. 1B, read-out: IC50 for SB-dependent inhibition of ΔNHAB1 by AtPYL10) it was 506 ± 56 nM; in experiment [8] (Fig. 1B, read-out: IC50 for SB-dependent inhibition of ΔNHAB1 by AtPYL5), 877 ± 6 nM; in [9] (Fig. 1B, read-out: IC50 for SB-dependent inhibition of ΔNHAB1 by AtPYL1), 10.1 ± 1.99 µM. In addition, in experiment [4], the “inhibition of HAB1 activity by candidate molecules of the in silico screening” value was “able to inhibit HAB1 activity”. Moreover, the “IC50 of SB relative to IC50 of ABA” value is “fourfold higher” in [5] (AtPYL10); “circa 30 fold” in experiment [8] (PYL5, higher than ABA); “circa 30 fold” in experiment [9] (PYL1, higher than ABA). Besides, the inhibition at 100 µM in [5] (setting [11]) and in [8] (setting [11]) was greater than 75% each time. The “sensitivity to SB of PYL10 relative to PYL1 members” value in experiment [6] is on record as 20 fold. The “reduction of root growth” value in experiment [7] (PYL5- and PYL10-overexpressing lines) is given as 40%; in experiment [7] (WT seedlings), 20%. In experiment [7] (sextuple 112458 mutant), the “effect on root growth” value is reported as “resistant”. The “inhibition of seedling establishment” value was “sensitive” in experiment [10] (35S:CsPYL1^5m lines, 10 μM SB); “not affected” in [10] (35S:CsPYL1 lines, even by 100 μM SB); “reduced the seedling establishment” in experiment [10] (PYL5- and PYL10-overexpressing lines, 50 to 100 μM SB); “not active” in experiment [10] (WT seeds, even at 100 μM). Moreover, the “dosage required to inhibit seedling establishment relative to ABA” value in experiment [10] (CsPYL1^5m lines, higher than ABA) is listed as 20 fold.
